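Compound exposure: 48 hours, 5 concentrations, 96-well plates. The concentration for 50% growth inhibition is given as GI50.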 The source made the active and inactive calls. No stated cut-off is given here; in the data, active = GI50 up to about 1.1 µM and inactive = higher.
Columns and labels:
Experiment in all cases: inhibition of tumour cell growth, NCI panel, 48 h
[1] = tested on: NCI-H522
[2] = tested on: LOX IMVI
[3] = tested on: COLO 205
[4] = tested on: U-251
[5] = tested on: HCC 2998
[6] = tested on: HCT-15
[7] = tested on: M14
[8] = tested on: HT-29
[9] = tested on: SR
[10] = tested on: MDA-MB-231
[11] = tested on: SK-MEL-2
[12] = tested on: SN12C
[13] = tested on: NCI-H226
[14] = tested on: UACC-62
[15] = tested on: A549
[16] = tested on: RXF 393
[17] = tested on: A498
[18] = tested on: OVCAR-4
[19] = tested on: CCRF-CEM
[20] = tested on: SF-295

| SMILES | GI50 [1] | GI50 [2] | GI50 [3] | GI50 [4] | GI50 [5] | GI50 [6] [µM] | GI50 [7] | GI50 [8] | GI50 [9] | GI50 [10] | GI50 [11] | GI50 [12] | GI50 [13] | GI50 [14] | GI50 [15] | GI50 [16] | GI50 [17] | GI50 [18] | GI50 [19] | GI50 [20] |
| --- | --- | --- | --- | --- | --- | --- | --- | --- | --- | --- | --- | --- | --- | --- | --- | --- | --- | --- | --- | --- |
| Cc1cc(S(=O)(=O)n2ccnc2Oc2ccccc2)c(SSc2cc(Cl)c(C)cc2S(=O)(=O)n2ccnc2Oc2ccccc2)cc1Cl | 5.93 µM (inactive) | > 100 µM (inactive) | > 100 µM (inactive) | > 100 µM (inactive) | > 100 µM (inactive) | > 100 | > 100 µM (inactive) | > 100 µM (inactive) | 44 µM (inactive) | > 100 µM (inactive) | > 100 µM (inactive) | 85.5 µM (inactive) | 15.9 µM (inactive) | > 100 µM (inactive) | > 100 µM (inactive) | > 100 µM (inactive) | > 100 µM (inactive) | 35.3 µM (inactive) |  |  |
| Cc1ccc(C2=Nc3c(N)nc(N)nc3NC(c3ccccc3)C2)cc1 (configuration not stated) | 3.65 µM (inactive) | 11 µM (inactive) |  | 12.1 µM (inactive) | 7.41 µM (inactive) | 4.92 | 8.26 µM (inactive) | 3.99 µM (inactive) | 6.92 µM (inactive) | 7.4 µM (inactive) |  | 11.4 µM (inactive) | 14.3 µM (inactive) | 10.3 µM (inactive) | 10.9 µM (inactive) | 9.4 µM (inactive) | 11.4 µM (inactive) | 13.9 µM (inactive) | 7.41 µM (inactive) |  |
| COc1ccc2c(c1)CCc1cc(OC)ccc1/[N+]([O-])=[N+]\2[O-] | 5.93 µM (inactive) | 15 µM (inactive) | 14.5 µM (inactive) | 17.6 µM (inactive) | 30.1 µM (inactive) | 15.6 | 23 µM (inactive) | 19.6 µM (inactive) | 3.28 µM (inactive) | 18.7 µM (inactive) | 20.9 µM (inactive) | 16.2 µM (inactive) |  | 15.8 µM (inactive) | 26.4 µM (inactive) | 2.86 µM (inactive) | 16.2 µM (inactive) |  | 1.92 µM (inactive) | 19.9 µM (inactive) |
| CCc1cc2c(cc1O)CC[C@@H]1[C@@H]2CC[C@]2(C)[C@@H](O)CC[C@@H]12 | 8.81 µM (inactive) | 9.75 µM (inactive) | 17.5 µM (inactive) | 4.76 µM (inactive) | 10.2 µM (inactive) | 4.83 | 6.49 µM (inactive) | 15 µM (inactive) | 3.08 µM (inactive) | 7.93 µM (inactive) | 9.82 µM (inactive) |  | 12.2 µM (inactive) | > 10 µM (inactive) | 8.05 µM (inactive) | 3.76 µM (inactive) | 18.7 µM (inactive) | 12.3 µM (inactive) | 5.6 µM (inactive) | 3.91 µM (inactive) |

From ChEMBL document CHEMBL1201862, “PubChem BioAssay data set” (2004)
